# Reference: US7807625B2, “Anti-wrinkle composition” (Grant Industries, Inc, priority 2006, dated 2010)
# Tested on: type I collagen, normal human dermal fibroblasts
# Assay: Collagen assay: type I collagen by sandwich ELISA in fibroblast culture-conditioned medium
# Assay type: cell-based
# Details: 4 days, LbGp 1.25 mg/ml and/or palmitoyl hexapeptide-6 0.20 mg/ml
# Protocol: Normal human dermal fibroblasts (Cambrex, Walkersville, Md.) were seeded into a 96-well plate and grown to confluence. They were then challenged with several concentrations of the test samples for 4 days. The fibroblast culture-conditioned medium was harvested and tested for type I collagen by sandwich ELISA using affinity-purified antibodies. Magnesium ascorbyl phosphate (MAP) was tested along with the sample as a positive control.
substance,measurement,value
palmitoyl hexapeptide-6 [Hydrophobic peptide alone],Type I collagen Assay,420
